This is an account of results in patent US7157594B2, “6-Fluorobicyclo[3.1.0]hexane derivatives” (Taisho Pharmaceutical Co., Ltd., priority 2001, dated 2007).

For data set [1], the target named is T1, metabotropic glutamate receptor mGluR2 (Rattus norvegicus, UniProt P31421).
T1 construct: expressed in transfected cells
In words: Antagonistic effect on glutamic acid-induced inhibition of forskolin-stimulated cAMP accumulation in CHO cells stably expressing mGluR2. Format: cell-based. As for the experimental part:
Antagonistic Effect of Test Drugs on cAMP Accumulation in CHO Cells Modified to Stably Express Metabotropic Glutamate Receptor mGluR2
Using Dulbecco's modified Eagle's medium with 10% dialyzed fetal bovine serum [1% proline, 50 units/ml penicillin, 50 μg/ml streptomycin, 2 mM L-glutamine (added before use)], CHO cells modified to stably express metabotropic glutamate receptor mGluR2 were seeded in 96-well plates at a ratio of 1.26×10^4 cells/well/0.32 cm^2/150 μl and grown at 37° C. under 5% CO2 for 2 days. The medium was then replaced by L-glutamine-free medium, and after 4 hours, the supernatant was removed by aspiration. PBS(+)-IBMX (10 mM PBS(−), 1 mM MgCl2, 1 mM CaCl2, 1 mM IBMX) was added in 150 μl aliquots and the plates were incubated for 20 minutes at 37° C. under 5% CO2. […] The dried samples were assayed for cAMP levels using a cAMP EIA kit (Amersham). The value of control samples was subtracted from each measured cAMP level.
For orientation: Changes in cAMP serve as a functional read-out for many G protein-coupled receptors.

Data set [2] has as its system male SD rats. The experiment in a line: Antidepressant effect by forced swimming test in rats. Format: in vivo, rat. The note with it: two i.p. injections (24 hours and 1 hour before) at 0.3, 1 or 3 mg/kg, compared to solvent group, Dunnett's test, FIGS. 1 and 2. As for the experimental part: Evaluation of Antidepressant Effect by Forced Swimming Test in Rats
• (1) The animals used for this experiment were male SD rats (body weigh: 220–240 g, Charles River Japan). • (2) The test drugs used were:
Namely, the rats were placed in a cylinder containing water 30 cm deep and forced to swim for 15 minutes. After a period of 24 hours, the rats were forced again to swim for 5 minutes (actual experiment). The immobility time in this actual experiment was measured for each rat to evaluate the antidepressant effect of test drugs.
The test groups received two intraperitoneal injections (24 hours and 1 hour before the actual experiment) of LY341495 or Compound 34 in 1/15 M phosphate buffer at a dose of 0.3 mg/kg, 1 mg/kg or 3 mg/kg. The solvent group received only 1/15 M phosphate buffer by intraperitoneal route. • (4) The symbols * and ** in FIGS. 1 and 2 denote statistical significance at P<0.05 and P<0.01 by Dunnett's test, respectively, when compared to the solvent group receiving 1/15 M phosphate buffer.

Setting [3] is: read-out: IC50, concentration required for 50% antagonism of inhibitory effect of 30 μM glutamic acid on 10^-5 M forskolin-stimulated cAMP level.
Where [4] appears, read: 30 μM glutamic acid, 10^-5 M forskolin.

The structures appear in SMILES notation. pIC50: −log10 of the molar value. Where two headings read alike, the source gives them in different places.

Usually melting point stands for the temperature, or range, at which the solid turns liquid.

T1 sequence (P31421 19-872): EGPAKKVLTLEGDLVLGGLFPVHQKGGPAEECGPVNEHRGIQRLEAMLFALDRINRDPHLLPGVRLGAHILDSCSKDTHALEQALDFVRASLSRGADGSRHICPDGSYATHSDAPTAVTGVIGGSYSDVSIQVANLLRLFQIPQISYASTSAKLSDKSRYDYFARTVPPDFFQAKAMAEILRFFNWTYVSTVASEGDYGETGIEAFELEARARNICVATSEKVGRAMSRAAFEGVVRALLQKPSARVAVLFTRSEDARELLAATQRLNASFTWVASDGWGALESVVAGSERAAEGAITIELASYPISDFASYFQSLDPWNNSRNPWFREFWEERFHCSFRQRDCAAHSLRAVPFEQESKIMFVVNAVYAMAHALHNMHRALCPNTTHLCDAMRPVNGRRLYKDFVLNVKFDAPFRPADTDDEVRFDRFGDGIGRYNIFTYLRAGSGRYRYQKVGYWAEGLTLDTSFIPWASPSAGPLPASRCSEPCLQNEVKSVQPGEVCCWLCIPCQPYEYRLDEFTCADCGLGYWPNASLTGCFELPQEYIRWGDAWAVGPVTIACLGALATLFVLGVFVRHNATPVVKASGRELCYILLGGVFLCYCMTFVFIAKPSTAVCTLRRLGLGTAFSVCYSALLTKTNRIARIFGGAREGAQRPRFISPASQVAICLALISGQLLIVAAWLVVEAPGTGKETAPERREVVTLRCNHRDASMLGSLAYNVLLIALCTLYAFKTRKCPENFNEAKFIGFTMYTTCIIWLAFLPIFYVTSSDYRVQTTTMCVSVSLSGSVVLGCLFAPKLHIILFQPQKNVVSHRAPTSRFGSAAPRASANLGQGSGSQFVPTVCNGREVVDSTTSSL

`CCOC(=O)[C@@]1(N)[C@H]2[C@@H](C[C@H]1OCc1ccc(Cl)c(Cl)c1)[C@]2(F)C(=O)O` showed a melting point greater than 233 °C.
Still for that read-out and setting: the result for `Nc1cccc(CO[C@@H]2C[C@@H]3[C@H]([C@]2(N)C(=O)O)[C@@]3(F)C(=O)O)c1` (hydrate or solvate) reads greater than 190 °C; that for `CC(O[C@@H]1C[C@@H]2[C@H]([C@]1(N)C(=O)O)[C@@]2(F)C(=O)O)c1ccc2ccccc2c1` (relative stereo) [57], greater than 185 °C.
Same read-out and setting: in the case of `CC(O[C@@H]1C[C@@H]2[C@H]([C@]1(N)C(=O)O)[C@@]2(F)C(=O)O)c1ccc2ccccc2c1` (relative stereo) [58] it was greater than 188 °C.
The molecule `CO[C@@H]1C[C@@H]2[C@H]([C@]1(N)C(=O)O)[C@@]2(F)C(=O)O` [Compound 1, (1R,2R,3R,5R,6R)-2-amino-3-methoxy-6-fluorobicyclo[3.1.0]hexane-2,6-dicarboxylic acid] registered a melting point greater than 199 °C. Further, the pIC50 in data set [1] (setting [3]) was 6.64.
The molecule `COC1C[C@@H]2[C@@H]([C@@]2(F)C(=O)O)[C@]1(N)C(=O)O` (stereo partly drawn) [Compound 2] had a melting point greater than 171 °C.
Molecule `C=CCO[C@@H]1C[C@@H]2[C@H]([C@]1(N)C(=O)O)[C@@]2(F)C(=O)O` [Compound 5, (1R,2R,3R,5R,6R)-2-Amino-3-(2-propenyloxy)-6-fluorobicyclo[3.1.0]hexane-2,6-dicarboxylic acid] gave a melting point greater than 248 °C.
In the case of `NC1(C(=O)O)C(OCc2ccccc2)CC2C1C2(F)C(=O)O` (stereo not drawn) [Compound 6], the melting point was greater than 226 °C. In data set [1] (setting [4]), the pIC50 was 6.88.
The molecule `N[C@]1(C(=O)O)[C@H]2[C@@H](C[C@H]1OCc1ccc(Cl)cc1)[C@]2(F)C(=O)O` [Compound 22] displayed a melting point greater than 220 °C. Besides, the pIC50 in data set [1] (setting [3]) was 7.54.
The molecule `NC1(C(=O)O)C(OCc2ccc(F)c(F)c2)CC2C1C2(F)C(=O)O` (stereo not drawn) [Compound 28] showed a pIC50 in data set [1] (setting [4]) of 7.39.
As for `N[C@]1(C(=O)O)[C@H]2[C@@H](C[C@H]1OCc1ccc(Cl)c(Cl)c1)[C@]2(F)C(=O)O` [Compound 34, (1R,2R,3R,5R,6R)-2-amino-3-(3,4-dichlorobenzyloxy)-6-fluorobicyclo[3.1.0]hexane-2,6-dicarboxylic acid], in data set [1] (setting [3]), the pIC50 is 7.70. For the same molecule, in data set [2], the “immobility time in forced swimming test” value is recorded as “significant dose-dependent reduction in immobility time”.
In the case of `NC1(C(=O)O)C(OCc2ccc3ccccc3c2)CC2C1C2(F)C(=O)O` (stereo not drawn) [Compound 42], the melting point is greater than 210 °C. In addition, the pIC50 in data set [1] (setting [4]) is 7.64.
In turn, `CCCC(C)OC1C[C@@H]2[C@@H]([C@@]2(F)C(=O)O)[C@]1(N)C(=O)O` (stereo partly drawn) [Compound 44] gave a melting point greater than 170 °C.
`NC1(C(=O)O)C(OC(c2ccccc2)c2ccccc2)CC2C1C2(F)C(=O)O` (stereo not drawn) [Compound 52]: the melting point was greater than 230 °C. The pIC50 in data set [1] (setting [4]) is 7.61.
`N[C@](CC1c2ccccc2Oc2ccccc21)(C(=O)O)[C@H]1C[C@@H]1C(=O)O` [LY341495, (2S)-2-amino-2-((1S,2S)-2-carboxycycloprop-1-yl)-3-(9-xanthyl)propionic acid, reference compound]: the “immobility time in forced swimming test” value in data set [2] is listed as “significant dose-dependent reduction in immobility time”.
